In patent publication US20230312550A1, “N-(2-(4-CYANOTHIAZOLIDIN-3-YL)-2-OXOETHYL)-QUINOLINE-4-CARBOXAMIDES” (AstraZeneca AB, priority 2020, published 2023):
Converted amounts (≈) assume the structure as drawn.

Experiments:
[1] = Metabolic stability in rat hepatocytes (rHep); conditions: n = 1 or geometric mean of n = 2-3
[2] = target: human Fibroblast activation protein alpha (hFAP) (Homo sapiens (Human), UniProt Q12884); assay: hFAP inhibition assay (tight binders); format: biochemical; conditions: Ala-Pro-AMC 20 μM, n = 1 or geometric mean n = 2-6; further: hFAP 2.4 pM
human Fibroblast activation protein alpha (hFAP), sequence (Q12884 38-760): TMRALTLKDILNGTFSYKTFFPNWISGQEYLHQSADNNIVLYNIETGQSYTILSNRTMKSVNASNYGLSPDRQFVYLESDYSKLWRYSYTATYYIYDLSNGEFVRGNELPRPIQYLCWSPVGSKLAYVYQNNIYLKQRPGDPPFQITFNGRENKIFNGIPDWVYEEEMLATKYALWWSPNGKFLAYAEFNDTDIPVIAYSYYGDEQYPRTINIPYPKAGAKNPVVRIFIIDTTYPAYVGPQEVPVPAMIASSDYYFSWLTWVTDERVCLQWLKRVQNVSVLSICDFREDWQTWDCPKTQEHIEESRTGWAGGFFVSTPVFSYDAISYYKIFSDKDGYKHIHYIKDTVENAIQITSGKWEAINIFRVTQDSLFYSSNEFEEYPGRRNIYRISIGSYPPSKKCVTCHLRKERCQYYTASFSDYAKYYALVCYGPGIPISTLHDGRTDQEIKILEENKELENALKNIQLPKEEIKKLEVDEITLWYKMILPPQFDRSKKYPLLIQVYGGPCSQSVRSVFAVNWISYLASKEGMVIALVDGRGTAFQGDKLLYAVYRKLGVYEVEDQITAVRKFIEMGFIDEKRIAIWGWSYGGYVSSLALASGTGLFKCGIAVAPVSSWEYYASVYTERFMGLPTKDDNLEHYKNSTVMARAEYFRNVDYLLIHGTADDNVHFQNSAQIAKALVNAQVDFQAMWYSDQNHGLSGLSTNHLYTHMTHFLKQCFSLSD
Experimental: The plates were read on a PHERAstar® reader with excitation 340 nm and emission 460 nm. Data were analyzed in Genedata Screener®. IC50 values were determined by plotting % inhibition versus log compound concentration and using a one site dose response model.

[3] = Metabolic stability in human liver microsomes (HLM); conditions: for microsomal CLint: human
Experimental: Metabolic stability in HLM was measured as described in J Comput Aided Mol Des 2015, 29, 795.

[4] = target: Prolyl endopeptidase, Prolyl Oligopeptidase (hPREP) (Homo sapiens (Human), UniProt P48147); assay: hPrep inhibition assay; format: biochemical; conditions: hPREP 0.6 nM, Z-Gly-Pro-amino-methylcoumarin 50 μM; read-out: PREP IC50
Prolyl endopeptidase, Prolyl Oligopeptidase (hPREP), sequence (P48147 whole entry): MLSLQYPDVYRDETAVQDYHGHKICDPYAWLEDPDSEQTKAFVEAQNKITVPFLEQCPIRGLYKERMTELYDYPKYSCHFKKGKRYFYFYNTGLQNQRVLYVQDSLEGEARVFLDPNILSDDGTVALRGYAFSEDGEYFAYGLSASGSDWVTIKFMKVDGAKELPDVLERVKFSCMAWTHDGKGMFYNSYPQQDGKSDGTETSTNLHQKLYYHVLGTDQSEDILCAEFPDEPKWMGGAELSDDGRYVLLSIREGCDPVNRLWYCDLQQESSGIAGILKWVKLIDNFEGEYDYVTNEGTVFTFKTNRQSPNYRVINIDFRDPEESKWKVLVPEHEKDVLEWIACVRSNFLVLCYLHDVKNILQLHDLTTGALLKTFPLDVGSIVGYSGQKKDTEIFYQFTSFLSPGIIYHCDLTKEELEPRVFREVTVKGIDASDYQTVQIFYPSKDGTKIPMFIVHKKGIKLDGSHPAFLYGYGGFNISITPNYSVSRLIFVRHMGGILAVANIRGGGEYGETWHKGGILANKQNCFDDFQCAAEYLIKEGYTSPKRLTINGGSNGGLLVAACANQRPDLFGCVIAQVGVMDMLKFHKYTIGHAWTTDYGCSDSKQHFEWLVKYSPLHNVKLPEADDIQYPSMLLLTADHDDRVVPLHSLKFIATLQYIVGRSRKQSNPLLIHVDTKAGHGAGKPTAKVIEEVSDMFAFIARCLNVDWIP
Experimental: Compounds were tested in a biochemical inhibition assay using Prolyl endopeptidase, Prolyl Oligopeptidase (hPREP) enzyme at 0.6 nM FAC (R&D Systems, 4308-SE) and the substrate Z-Gly-Pro-amino-methylcoumarin (Bachem, I-1145) at 50 μM FAC. 384 Low volume black plates (Greiner #784076) were used. […] Plates were incubated for 15 min at rt in dark. 4 μL, 100 μM substrate solution (25 mM Tris HCl, 250 mM NaCl, 0.01% Triton X-100, 5 mM Glutathione, pH 7.5) was added to each well. Plates were centrifuged at 1000 rpm and incubated for 20 min at rt in dark. The plates were read on a PHERAstar® reader with excitation 340 nm and emission 460 nm. Data were analyzed in Genedata Screener®. IC50 values were determined by plotting % inhibition versus log compound concentration and using a one site dose response model.

hFAP (M39-A757) = hFAP (M39-A757) (Homo sapiens (Human), UniProt Q12884); assay: hFAP binding assay (surface plasmon resonance); conditions: SPR, 20° C.; for hFAP Binding assay k(off) / hFAP Binding assay k(on): single cycle kinetics; for Kd: n = 1 or geometric mean n = 2-4
hFAP (M39-A757), sequence (Q12884 39-757): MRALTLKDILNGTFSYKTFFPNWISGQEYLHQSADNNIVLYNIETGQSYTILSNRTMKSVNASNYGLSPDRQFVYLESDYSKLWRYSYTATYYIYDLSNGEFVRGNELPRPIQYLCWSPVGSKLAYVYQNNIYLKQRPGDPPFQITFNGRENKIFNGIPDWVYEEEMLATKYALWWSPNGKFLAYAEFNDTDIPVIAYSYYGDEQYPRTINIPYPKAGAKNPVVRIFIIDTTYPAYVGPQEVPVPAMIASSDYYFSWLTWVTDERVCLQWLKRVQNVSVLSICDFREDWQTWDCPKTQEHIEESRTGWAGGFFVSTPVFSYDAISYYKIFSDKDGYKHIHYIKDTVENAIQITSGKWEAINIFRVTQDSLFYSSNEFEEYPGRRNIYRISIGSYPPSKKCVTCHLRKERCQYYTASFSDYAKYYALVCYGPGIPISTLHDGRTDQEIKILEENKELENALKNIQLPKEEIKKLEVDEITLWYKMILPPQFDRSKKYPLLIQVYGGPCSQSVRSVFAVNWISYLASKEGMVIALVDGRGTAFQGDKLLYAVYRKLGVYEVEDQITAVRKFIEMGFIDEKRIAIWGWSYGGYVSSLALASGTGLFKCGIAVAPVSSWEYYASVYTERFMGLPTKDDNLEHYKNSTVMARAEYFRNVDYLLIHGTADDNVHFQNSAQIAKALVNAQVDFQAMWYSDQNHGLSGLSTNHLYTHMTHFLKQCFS

[5] = HLM CLint, n = 1 or average of n = 2-3
[6] = kinetic from dmso stock, Solubility, kinetic solubility, n = 1 or average of n = 2-3
[7] = kinetic solubility, n = 1 or average of n = 2-3

Experimental for Kinetic solubility: Kinetic solubility was measured as described in Comput Aided Mol Des 2015, 29, 795.

Row | SMILES | rHep CLint [1] [μL/min/1E6] | IC50 [2] [nM] | microsomal CLint [3, 5] [µL/min/mg] | solubility (Kinetic solubility; [6]) [µM] | IC50 [4] [nM] | hFAP Binding assay k(off) (hFAP (M39-A757)) [s⁻¹] | hFAP Binding assay k(on) (hFAP (M39-A757)) [M⁻¹ s⁻¹] | Kd (hFAP (M39-A757)) [nM] | microsomal CLint [3] [µL/min/mg] | solubility (Kinetic solubility; kinetic from dmso stock) [µM] | microsomal CLint ([3]; liver microsomes, HLM CLint, n = 1 or average of n = 2-3) [µL/min/mg] | HLM CLint ([3]; n = 1 or average of n = 2-3) [µL/min/mg] | solubility (Kinetic solubility; [7]) [µM]
1 | Cc1cc2nccc(C(=O)NCC(=O)N3CSC[C@H]3C#N)c2cc1N1CCOCC1 [Example 10, (R)—N-(2-(4-Cyanothiazolidin-3-yl)-2-oxoethyl)-7-methyl-6-morpholino-quinoline-4-carboxamide] | 41 | 0.054 | 130 | 270 (≈ 115 µg/mL) | 940 | 0.000056 | 370000 | 0.15 | – | – | – | – | –
2 | N#C[C@@H]1CSCN1C(=O)CNC(=O)c1ccnc2ccc(N3CC(OC(F)F)C3)cc12 [Example 136, (R)—N-(2-(4-Cyanothiazolidin-3-yl)-2-oxoethyl)-6-(3-(difluoromethoxy)-azetidin-1-yl)quinoline-4-carboxamide] | 4.8 | 0.061 | < 3 | 21 (≈ 9.4 µg/mL) | 300 | 0.000050 | 2000000 | 0.036 | – | – | – | – | –
3 | N#C[C@@H]1CSCN1C(=O)CNC(=O)c1ccnc2ccc(N3CC4(CCS4)C3)cc12 [Example 222, (R)—N-(2-(4-Cyanothiazolidin-3-yl)-2-oxoethyl)-6-(1-thia-6-azaspiro[3.3]heptan-6-yl)quinoline-4-carboxamide] | 4.2 | 0.087 | – | – | 490 | – | – | 0.022 | 40 | 120 (≈ 52.7 µg/mL) | – | – | –
4 | COCC[C@@H]1COCCN1c1ccc2nccc(C(=O)NCC(=O)N3CSC[C@H]3C#N)c2c1 [Example 95, N-(2-((R)-4-Cyanothiazolidin-3-yl)-2-oxoethyl)-6-((R)-3-(2-methoxyethyl)-morpholino)quinoline-4-carboxamide] | 13 | 0.16 | 63 | 960 (≈ 451 µg/mL) | 740 | 0.000056 | 2900000 | 0.024 | – | – | – | – | –
5 | CC1(C)CCc2cn(-c3ccc4nccc(C(=O)NCC(=O)N5CSC[C@H]5C#N)c4c3)nc21 [Example 117, (R)—N-(2-(4-Cyanothiazolidin-3-yl)-2-oxoethyl)-6-(6,6-dimethyl-5,6-dihydrocyclopenta[c]pyrazol-2(4H)-yl)quinoline-4-carboxamide] | 29 | 0.061 | 170 | 25 (≈ 11.5 µg/mL) | 170 | – | – | 0.06 | – | – | – | – | –
6 | N#C[C@@H]1CSCN1C(=O)CNC(=O)c1ccnc2ccc(-n3ccnc3-c3ccccc3)cc12 [Example 217, (R)—N-(2-(4-Cyanothiazolidin-3-yl)-2-oxoethyl)-6-(2-phenyl-1H-imidazol-1-yl)quinoline-4-carboxamide] | 37 | 0.67 | > 300 | 410 (≈ 192 µg/mL) | 310 | 0.0013 | 1800000 | 0.71 | – | – | – | – | –
7 | N#C[C@@H]1CSCN1C(=O)CNC(=O)c1ccnc2ccc(N3CCC[C@@H]3C3CC3)cc12 (single isomer, unassigned) [Example 199, N-(2-((R)-4-Cyanothiazolidin-3-yl)-2-oxoethyl)-6-((R*)-2-cyclopropyl-pyrrolidin-1-yl)quinoline-4-carboxamide] | 250 | 0.3 | > 300 | 85 (≈ 37 µg/mL) | 170 | 0.00026 | 2300000 | 0.1 | – | – | – | – | –
8 | N#C[C@@H]1CSCN1C(=O)CNC(=O)c1ccnc2ccc(N3CC4(CC(C(F)(F)F)C4)C3)cc12 [Example 150, (R)—N-(2-(4-Cyanothiazolidin-3-yl)-2-oxoethyl)-6-(6-(trifluoromethyl)-2-azaspiro[3.3]heptan-2-yl)quinoline-4-carboxamide] | 5 | 0.5 | – | – | 2000 | 0.000043 | 280000 | 0.16 | 49 | 77 (≈ 37.7 µg/mL) | – | – | –
9 | N#C[C@@H]1CSCN1C(=O)CNC(=O)c1ccnc2ccc(N3CC(OC(F)(F)F)C3)cc12 [Example 132, (R)—N-(2-(4-Cyanothiazolidin-3-yl)-2-oxoethyl)-6-(3-(trifluoromethoxy)-azetidin-1-yl)quinoline-4-carboxamide] | 8.5 | 0.41 | 38 | 13 (≈ 6.05 µg/mL) | 3700 | 0.00014 | 270000 | 0.52 | – | – | – | – | –
10 | Cc1ccn(-c2ccc3nccc(C(=O)NCC(=O)N4CSC[C@H]4C#N)c3c2)c1 [Example 121, (R)—N-(2-(4-Cyanothiazolidin-3-yl)-2-oxoethyl)-6-(3-methyl-1H-pyrrol-1-yl)quinoline-4-carboxamide] | 13 | 0.15 | 43 | 44 (≈ 17.8 µg/mL) | 88 | 0.000016 | 1100000 | 0.012 | – | – | – | – | –
11 | N#C[C@@H]1CSCN1C(=O)CNC(=O)c1ccnc2ccc(-n3ccc4c3CCCC4)cc12 [Example 219, (R)—N-(2-(4-Cyanothiazolidin-3-yl)-2-oxoethyl)-6-(4,5,6,7-tetrahydro-1H-indol-1-yl)quinoline-4-carboxamide] | 75 | 0.11 | 160 | 2.5 (≈ 1.11 µg/mL) | 230 | 0.0002 | 2400000 | 0.083 | – | – | – | – | –
12 | CC(F)(F)CC1CN(c2ccc3nccc(C(=O)NCC(=O)N4CSC[C@H]4C#N)c3c2)C1 [Example 140, (R)—N-(2-(4-Cyanothiazolidin-3-yl)-2-oxoethyl)-6-(3-(2,2-difluoropropyl)-azetidin-1-yl)quinoline-4-carboxamide] | 7.7 | 0.1 | 32 | 39 (≈ 17.9 µg/mL) | 840 | 0.00016 | 2600000 | 0.064 | – | – | – | – | –
13 | N#C[C@@H]1CSCN1C(=O)CNC(=O)c1ccnc2ccc(N3CC(COC(F)(F)F)C3)cc12 [Example 130, (R)—N-(2-(4-Cyanothiazolidin-3-yl)-2-oxoethyl)-6-(3-((trifluoromethoxy)-methyl)azetidin-1-yl)quinoline-4-carboxamide] | 11 | 0.19 | – | 16 (≈ 7.67 µg/mL) | 540 | – | – | 0.18 | – | – | 54 | – | –
14 | N#C[C@@H]1CSCN1C(=O)CNC(=O)c1ccnc2ccc(N3CCC4(CCOCC4)CC3)cc12 [Example 162, (R)—N-(2-(4-cyanothiazolidin-3-yl)-2-oxoethyl)-6-(3-oxa-9-azaspiro[5.5]undecan-9-yl)quinoline-4-carboxamide] | 3.4 | 0.053 | – | – | 280 | 0.000028 | 1900000 | 0.018 | 44 | 140 (≈ 67.1 µg/mL) | – | – | –
15 | N#C[C@@H]1CSCN1C(=O)CNC(=O)c1ccnc2ccc(N3CCOC[C@@H]3C(F)(F)F)cc12 (single isomer, unassigned) [Example 85, N-(2-((R)-4-Cyanothiazolidin-3-yl)-2-oxoethyl)-6-((R*)-3-(trifluoromethyl)-morpholino)quinoline-4-carboxamide] | 35 | 0.087 | – | – | 720 | 0.00011 | 4000000 | 0.032 | – | – | – | 260 | 800 (≈ 384 µg/mL)
16 | C[C@@H]1CN(c2ccc3nccc(C(=O)NCC(=O)N4CSC[C@H]4C#N)c3c2)C[C@H]1C (single isomer, unassigned) [Example 226, N-(2-((R)-4-Cyanothiazolidin-3-yl)-2-oxoethyl)-6-((3R*,4R*)-3,4-dimethylpyrrolidin-1-yl)quinoline-4-carboxamide] | 44 | 0.2 | – | – | 660 | – | – | 0.044 | – | – | – | 94 | 4.5 (≈ 1.91 µg/mL)
